The source of these data is patent US11046725B2, “Galactoside inhibitor of galectins” (GALECTO BIOTECH AB, priority 2018, dated 2021).

Assay [1] deals with T1, Galectin-1 (Homo sapiens (Human), UniProt P09382). Particulars: T. Delaine, 2016; read-out: affinity to Galectin-1; cited from earlier work.
Target sequence in this assay (P09382 whole entry, species assumed): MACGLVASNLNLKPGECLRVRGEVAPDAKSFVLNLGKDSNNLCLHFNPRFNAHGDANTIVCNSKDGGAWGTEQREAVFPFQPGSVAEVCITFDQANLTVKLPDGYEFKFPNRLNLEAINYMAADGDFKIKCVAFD
In assay [2] the target is T1, Galectin-1. Put plainly: Fluorescence anisotropy assay, inhibition of galectin / fluorescein tagged saccharide probe interaction. Format: binding. In general terms: Fluorescence polarisation rises when a labelled molecule tumbles more slowly, as on binding a larger partner.
Target sequence in this assay (P09382 whole entry): as the sequence (P09382 whole entry, species assumed) above
Another assay deals with Galectin-3 (Homo sapiens (Human), UniProt P17931). Described as above. It counts as binding. As to the method: Experimental Procedures (Evaluation of Kd Values)
The affinity of Example 1-33 for galectins were determined by a fluorescence anisotropy assay where the compound was used as an inhibitor of the interaction between galectin and a fluorescein tagged saccharide probe as described Sörme, P., Kahl-Knutsson, B., Huflejt, M., Nilsson, U. J., and Leffler H. (2004) Fluorescence polarization as an analytical tool to evaluate galectin-ligand interactions. Anal. Biochem. 334: 36-47, (Sörme et al., 2004) and Monovalent interactions of Galectin-1 By Salomonsson, Emma; Larumbe, Amaia; Tejler, Johan; Tullberg, Erik; Rydberg, Hanna; Sundin, Anders; Khabut, Areej; Frejd, Torbjorn; Lobsanov, Yuri D.; Rini, James M.; et al, From Biochemistry (2010), 49(44), 9518-9532, (Salomonsson et al., 2010).

In another assay the test system is galectins. Particulars: cited from earlier work.

Structures are written as SMILES. Like-named read-outs stand apart in the source and are kept apart here.

Chain of Galectin-3 (P17931 whole entry): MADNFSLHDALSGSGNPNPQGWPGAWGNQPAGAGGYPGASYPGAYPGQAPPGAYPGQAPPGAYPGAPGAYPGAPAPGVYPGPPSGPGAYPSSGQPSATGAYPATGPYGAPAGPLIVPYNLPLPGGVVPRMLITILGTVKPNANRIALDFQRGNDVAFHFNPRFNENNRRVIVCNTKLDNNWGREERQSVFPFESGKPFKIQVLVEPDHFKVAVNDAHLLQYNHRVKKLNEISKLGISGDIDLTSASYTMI

In the case of `OCC1O[C@@H](SC2O[C@H](CO)C(O)C(n3cc(-c4ccsc4)nn3)[C@H]2O)C(O)C(n2cc(-c3ccsc3)nn2)[C@H]1O` (some centres unmarked), the Kd at Galectin-1 [1] was < 0.01 µM.

As to `CN(C)C(=O)c1ncc(Cl)cc1S[C@H]1OC(CO)[C@H](O)[C@H](n2cc(-c3csc(O)n3)nn2)C1O` (stereo partly drawn) [Example 33, 5-Chloro-N,N′-dimethyl-picolinamide-3-yl 3-deoxy-3-[4-(2-hydroxythiazol-4-yl)-1H-1,2,3-triazol-1-yl]-1-thio-α-D-galactopyranoside], the Kd was found to be 0.054 µM on Galectin-1 [2] and 1.7 µM on Galectin-3.

For `O=C[C@H](O)[C@@H](O)[C@@H](O)[C@H](O)CO` [Galactose, D-galactose], the “affinity relative to lactose” value with galectins (compared with lactose) is reported as 50-100 times lower.

On to `OC[C@H]1O[C@@H](O[C@H]2[C@H](O)[C@@H](O)C(O)O[C@@H]2CO)[C@H](O)[C@@H](O)[C@H]1O` (some centres unmarked) [Lactose], for which, on galectins (Leffler, 2001, Leffler et al., 2004, read-out: Kd, all galectins), the Kd was 100 to 1000 µM.
